The source made the active and inactive calls.
System: Rattus norvegicus
Assay: Antiallodynic activity in Sprague-Dawley rat model of neuropathic mechanical allodynia assessed as increase in paw withdrawal threshold at 100 mg/kg, po measured at 2 to 6 hrs post last dose by von Frey test
Format: functional, organism-based
Conditions: time 2-6 hrs

## NCC1(CC(=O)O)CCCCC1
  Activity: Active

Reference: ChEMBL document CHEMBL4819053, “Alkyne-Bridged α-Conotoxin Vc1.1 Potently Reverses Mechanical Allodynia in Neuropathic Pain Models” (J Med Chem, 2021)
